Data set [1] relates to mouse. The following applies: Carcinogenicity; b6c3f1; Oral; Feed; dose end: 105 week; group: systemic; systemic / in life observation / body weight / body weight + systemic / pathology microscopic / kidney / mineralization + systemic / ….
Data set [2] has as its system mouse. The following applies: Subchronic oral toxicity in rodents, b6c3f1, Feed, dose end: 14 week, group: systemic.
For data set [3], the system named is rat. The following applies: Carcinogenicity, fischer, Oral, Feed, dose end: 105 week, group: systemic.
The subject of data set [4] is rat. The following applies: Subchronic oral toxicity in rodents, other, Gavage/Intubation, dose end: 90 day, group: systemic.
Data set [5] deals with rat. The note with it: Combined chronic toxicity/carcinogenicity, fischer, Oral, Water, dose end: 105 week, group: systemic.
Data set [6] has as its system rat. The following applies: Subchronic oral toxicity in rodents, sprague dawley, Water, dose end: 13 week, group: systemic.
Data set [7] has as its system rat. The following applies: Reproduction/developmental toxicity screening test, sprague dawley, Oral, Water, dose end: 1 generation, group: parental.
The test system of data set [8] is mouse. The following applies: Combined chronic toxicity/carcinogenicity, b6c3f1, Oral, Water, dose end: 105 week, group: systemic.
Data set [9] relates to rat. The note with it: Subchronic oral toxicity in rodents, fischer, Water, dose end: 14 week, group: systemic.
For data set [10], the system named is rat. The following applies: Reproduction/developmental toxicity screening test; sprague dawley; Oral; Water; dose end: 1 PND; group: parental; systemic / in life observation / water consumption / water consumption.
The test system of data set [11] is mouse. The note with it: Subchronic oral toxicity in rodents, b6c3f1, Water, dose end: 14 week, group: systemic.
Data set [12] deals with dog. The note with it: Subchronic oral toxicity in nonrodent, beagle, Capsule, dose end: 90 day, group: systemic.
Data set [13] relates to mouse. The note with it: Carcinogenicity, cd1, Oral, Feed, dose end: 78 week, group: systemic.
In data set [14] the test system is rat. The note with it: Subchronic oral toxicity in rodents, sprague dawley, Feed, dose end: 3 month, group: systemic.
Data set [15] concerns rat. The note with it: Combined chronic toxicity/carcinogenicity, sprague dawley, Oral, Feed, dose end: 104 week, group: systemic.
Data set [16] concerns rat. The following applies: Multigenerational reproductive toxicity study, sprague dawley, Oral, Feed, dose end: 2 generation.
In data set [17] the test system is rat. The note with it: Prenatal developmental toxicity study, other, Oral, Gavage/Intubation, dose end: 15 GD.
In data set [18] the test system is dog. The following applies: Subchronic oral toxicity in nonrodent, beagle, Capsule, dose end: 90 day, group: systemic. The source holds these as a separate data set.
Data set [19] has as its system dog. The following applies: Chronic toxicity, beagle, Oral, Capsule, dose end: 52 week, group: systemic.
[20] abbreviates: systemic / organ weight / liver / absolute + systemic / organ weight / liver / relative to body weight + systemic / pathology microscopic / ….
Setting [21] is: systemic / pathology microscopic / kidney / hyperplasia + systemic / pathology microscopic / liver / hyperplasia + systemic / pathology ….
[22] abbreviates: systemic / organ weight / thymus / absolute + systemic / organ weight / thymus / relative to body weight + systemic / organ weight / thymus….
The mark [23] stands for this setting: systemic / pathology microscopic / esophagus / hyperkeratosis + systemic / pathology microscopic / oral mucosa / [other] + systemic / ….
Where [24] appears, read: systemic / pathology gross / thyroid gland / enlarged + systemic / pathology microscopic / thyroid gland / cellular alteration.
Where [25] appears, read: systemic / pathology gross / thyroid gland / enlarged + systemic / pathology microscopic / thyroid gland / cellular alteration + systemic / ….
[26] abbreviates: systemic / in life observation / food consumption / food consumption + systemic / in life observation / water consumption / water ….
Where [27] appears, read: systemic / in life observation / water consumption / water consumption.
Where [28] appears, read: systemic / clinical chemistry / alanine aminotransferase (alt/sgpt) / alanine aminotransferase (alt/sgpt) + systemic / clinical chemistry / ….
[29] abbreviates: systemic / pathology gross / sperm measure / sperm motility.
Setting [30] is: systemic / in life observation / water consumption / water consumption + systemic / pathology gross / sperm measure / sperm motility.
[31] abbreviates: systemic / clinical chemistry / alkaline phosphatase (alp/alk) / alkaline phosphatase (alp/alk) + systemic / clinical chemistry / calcium / ….
The mark [32] stands for this setting: systemic / clinical chemistry / cholesterol / cholesterol + systemic / clinical chemistry / lipids / phospholipids + systemic / hematology….
[33] abbreviates: systemic / hematology / platelet / platelet + systemic / clinical chemistry / triglycerides / triglycerides + systemic / clinical chemistry….
Setting [34] is: systemic / in life observation / body weight / body weight gain + systemic / pathology microscopic / liver / hypertrophy + systemic / ….
Where [35] appears, read: group: offspring, systemic / in life observation / body weight / offspring (pup) weight.
[36] abbreviates: group: parental, systemic / in life observation / body weight / body weight + systemic / in life observation / food consumption / food consumption + systemic….
The mark [37] stands for this setting: group: developmental, developmental / developmental malformation / bone / full supernumerary.
The mark [38] stands for this setting: group: maternal, systemic / in life observation / body weight / body weight gain.
Setting [39] is: systemic / clinical chemistry / alkaline phosphatase (alp/alk) / alkaline phosphatase (alp/alk) + systemic / organ weight / liver / absolute….
Where [40] appears, read: systemic / organ weight / liver / absolute + systemic / organ weight / liver / relative to body weight + systemic / clinical chemistry / ….

Broadly, the LOAEL is the lowest dose or exposure tested at which an adverse effect was seen. Regarding `O=C(c1ccccc1)c1ccccc1` [Benzophenone], the LEL in [1] turned out to be 35 mg/kg/day; in data set [2] (setting [20]), 200 mg/kg/day; in [3] (setting [21]) it was 15 mg/kg/day. In addition, the lowest-observed-adverse-effect level (LOAEL) in data set [1] was 70 mg/kg/day; in data set [2] (systemic / clinical chemistry / bile acids / bile acids + systemic / clinical chemistry / sorbitol dehydrogenase / sorbitol dehydrogenase + …) it was 404 mg/kg/day; in data set [3] (systemic / in life observation / body weight / body weight + systemic / pathology microscopic / kidney / hyperplasia + systemic / pathology …), 30 mg/kg/day. Also, the NEL in [1] was less than 35 mg/kg/day; in data set [2] (setting [20]), less than 200 mg/kg/day; in [3] (setting [21]), less than 15 mg/kg/day.

As usually defined, the NOAEL is the highest dose or exposure tested at which no adverse effect was seen. Turning to `N#CC(Br)Br` [Dibromoacetonitrile], the LEL stood at 23 mg/kg/day in [4] (systemic / clinical chemistry / albumin / albumin); 4 mg/kg/day in [5] (systemic / pathology microscopic / esophagus / hyperkeratosis + systemic / pathology microscopic / oral mucosa / [other] + systemic / in …); 0.005 mg/kg/day in data set [6] (setting [24]); 3.3 mg/kg/day in data set [7] (setting [27]); 3 mg/kg/day in data set [8] (setting [27]); 3 mg/kg/day in data set [9] (setting [29]). The LEL stood at 5.3 mg/kg/day in data set [10] and 2 mg/kg/day in data set [11] (setting [29]). In addition, the NEL in data set [4] (systemic / clinical chemistry / albumin / albumin + systemic / clinical chemistry / globulins / globulins + systemic / clinical chemistry / …) is 6 mg/kg/day; in data set [5] (setting [23]), 2 mg/kg/day; in data set [6] (setting [24]), less than 0.005 mg/kg/day; in [7] (setting [26]), 1.4 mg/kg/day; in data set [8] (setting [27]) it was less than 3 mg/kg/day; in [9] (setting [28]), 2 mg/kg/day. Moreover, the results for the NEL in data set [10] and in data set [11] (setting [29]) were 1.9 mg/kg/day and less than 2 mg/kg/day, respectively. For the same compound, the LOAEL in data set [4] (setting [22]) was more than 45 mg/kg/day; in [5] (systemic / pathology microscopic / esophagus / hyperkeratosis), 4 mg/kg/day; in data set [6] (setting [25]), more than 5 mg/kg/day; in [7] (setting [26]) it was more than 8.2 mg/kg/day; in [8] (systemic / in life observation / body weight / body weight), 11 mg/kg/day; in data set [9] (setting [28]), more than 11 mg/kg/day. Moreover, the LOAEL in data set [10] was more than 10.8 mg/kg/day; in data set [11] (setting [30]) it was more than 18 mg/kg/day. Besides, the no observed adverse effect level (NOAEL) in data set [4] (setting [22]) is not below 45 mg/kg/day; in data set [5] (setting [23]), 2 mg/kg/day; in data set [6] (setting [25]), not below 5 mg/kg/day; in [7] (setting [26]), not below 8.2 mg/kg/day; in data set [8] (systemic / in life observation / body weight / body weight + systemic / pathology microscopic / stomach / squamous cell papilloma + systemic…) it was 6 mg/kg/day; in [9] (setting [28]), not below 11 mg/kg/day. Besides, the NOAEL in [10] is not below 10.8 mg/kg/day; in [11] (setting [30]), not below 18 mg/kg/day.

`O=[N+]([O-])[O-].[Ag+]` [Silver nitrate]: in data set [12] (setting [31]), the LOAEL came out at 250 mg/kg/day, the NEL worked out at 10 mg/kg/day and the NOAEL is 50 mg/kg/day. In [12] (systemic / in life observation / clinical signs / headflicking + systemic / in life observation / clinical signs / salivation + systemic / …), the LEL worked out at 50 mg/kg/day.

As to `CC(C)(C)[C@H](O)/C(=C\c1ccc(Cl)cc1)n1cncn1` [Uniconazole-P], the NEL was 225 mg/kg/day in data set [13] (systemic / pathology microscopic / liver / adenoma + systemic / pathology microscopic / liver / adenoma/carcinoma combined + systemic / in …); less than 3 mg/kg/day in [14] (setting [33]); 1.48 mg/kg/day in data set [15] (systemic / pathology microscopic / liver / hypertrophy + systemic / pathology microscopic / liver / vacuolization + systemic / in life …); 7.5 mg/kg/day in data set [16] (setting [35]); 0.75 mg/kg/day in data set [16] (setting [36]); 5 mg/kg/day in [17] (setting [37]). For the same compound, the NEL in data set [17] (setting [38]) came to 5 mg/kg/day; in data set [18] (setting [31]) it was 5 mg/kg/day; in [19] (systemic / clinical chemistry / alkaline phosphatase (alp/alk) / alkaline phosphatase (alp/alk) + systemic / organ weight / thymus / …) it was 2 mg/kg/day. Further, the LOAEL was determined as 225 mg/kg/day in [13] (systemic / pathology microscopic / liver / hypertrophy + systemic / pathology microscopic / liver / inflammation + systemic / pathology …); 100 mg/kg/day in data set [14] (setting [32]); 39.4 mg/kg/day in [15] (setting [34]); 75 mg/kg/day in data set [16] (setting [35]); 75 mg/kg/day in data set [16] (setting [36]); 25 mg/kg/day in data set [17] (setting [37]). In addition, the LOAEL in [17] (setting [38]) turned out to be 25 mg/kg/day; in data set [18] (setting [39]), 20 mg/kg/day; in data set [19] (systemic / organ weight / liver / absolute + systemic / organ weight / liver / relative to body weight) it was 20 mg/kg/day. Moreover, the NOAEL in [13] (systemic / pathology microscopic / liver / hypertrophy + systemic / pathology microscopic / liver / necrosis + systemic / pathology …) was determined as 30 mg/kg/day; in data set [14] (setting [32]), 10 mg/kg/day; in [15] (setting [34]), 7.78 mg/kg/day; in [16] (setting [35]), 7.5 mg/kg/day; in data set [16] (setting [36]), 7.5 mg/kg/day; in [17] (setting [37]) it was 5 mg/kg/day. The NOAEL turned out to be 5 mg/kg/day in data set [17] (setting [38]), 5 mg/kg/day in [18] (setting [31]) and 2 mg/kg/day in data set [19] (setting [40]). Also, the LEL in data set [14] (setting [33]) turned out to be 3 mg/kg/day; in [15] (systemic / pathology microscopic / liver / hypertrophy + systemic / pathology microscopic / liver / vacuolization), 7.78 mg/kg/day; in data set [16] (setting [35]) it was 75 mg/kg/day; in data set [16] (group: parental, systemic / organ weight / liver / nos), 7.5 mg/kg/day; in [17] (setting [37]), 25 mg/kg/day; in data set [17] (setting [38]), 25 mg/kg/day. Further, the LEL in [18] (setting [39]) and in data set [19] (setting [40]) was 20 mg/kg/day each time.

(Values after EPA's ToxRefDB 2.)
